Experimental data published in ChEMBL document CHEMBL1156451 (J Biol Chem, 2007).
Values after ≈ are worked out from the molar mass of the structure shown. Active and inactive are the calls of the source. The rule behind the calls is not given here. Where a SMILES comes first, the peptide text is derived from it.

Tests used:
[1] = system: HeLa; experiment: Cytotoxicity against human HeLa cells at 100 ug/ml after 24 hrs by MTT assay relative to control; assay type: functional
[2] = Toxicity in human erythrocytes assessed as hemolysis at 100 ug/ml; assay type: cell-based, Erythrocyte; conditions: read-out: Activity
[3] = system: Escherichia coli; experiment: Antibacterial activity against Escherichia coli ATCC 25922 after 24 hrs in Mueller-Hinton broth medium; assay type: functional; conditions: ATCC 25922, 24 h
[4] = system: Acinetobacter baumannii; experiment: Antibacterial activity against Acinetobacter baumannii ATCC 19606 after 24 hrs in Mueller-Hinton broth medium; assay type: functional; conditions: ATCC 19606, 24 h
[5] = system: Bordetella bronchiseptica; experiment: Antibacterial activity against Bordetella bronchiseptica CUN 11844-99 after 24 hrs in Mueller-Hinton broth medium; assay type: functional
[6] = system: Brucella abortus; experiment: Antibacterial activity against Brucella abortus 9.49 (per-) after 48 hrs in Mueller-Hinton broth medium; assay type: functional
[7] = system: Pseudomonas aeruginosa; experiment: Antibacterial activity against Pseudomonas aeruginosa CUN 4158-02 after 24 hrs in Mueller-Hinton broth medium; assay type: functional
[8] = system: Staphylococcus aureus; experiment: Antibacterial activity against methicillin-resistant Staphylococcus aureus ATCC 43300 after 24 hrs in Mueller-Hinton broth medium; assay type: functional; conditions: ATCC 43300, 24 h
[9] = system: Brucella abortus; experiment: Antibacterial activity against Brucella abortus 9.19 (per-) after 24 hrs in Mueller-Hinton broth medium; assay type: functional
[10] = system: Escherichia coli; experiment: Antibacterial activity against Escherichia coli K12 ATCC 23716 after 24 hrs in Mueller-Hinton broth medium; assay type: functional; conditions: K12, 24 h
[11] = system: Escherichia coli; experiment: Antibacterial activity against Escherichia coli K12 ATCC 23716 in 10% Luria-Bertani medium/90% Hepes buffer at pH 7.0; assay type: functional

| Structure (SMILES) | Activity [1] | hemolysis at 100 ug/ml [2] [%] | MBC [3] [µg/mL] | MIC [3] [µg/mL] | MBC [4] [µg/mL] | MIC [4] [µg/mL] | MBC [5] [µg/mL] | MIC [5] [µg/mL] | MIC [6] [µg/mL] | MBC [7] [µg/mL] | MIC [7] [µg/mL] | MBC [8] [µg/mL] | MIC [8] [µg/mL] | MBC [9] [µg/mL] | MBC [10] [µg/mL] | MIC [10] [µg/mL] | MBC [11] [µg/mL] | MIC [11] [µg/mL] |
| --- | --- | --- | --- | --- | --- | --- | --- | --- | --- | --- | --- | --- | --- | --- | --- | --- | --- | --- |
| CC[C@H](C)[C@H](N)C(=O)N[C@@H](CO)C(=O)N[C@@H](CCCCN)C(=O)N[C@@H](CCCNC(=N)N)C(=O)N[C@H](C(=O)N[C@@H](CC(C)C)C(=O)N[C@H](C(=O)NCC(=O)N[C@@H](CCCCN)C(=O)N[C@@H](CCCCN)C(=O)O)[C@@H](C)O)[C@@H](C)CC (H-ISKRILTGKK-OH) | inactive | < 5 | > 256 | > 256 | > 256 | > 256 | > 256 | > 256 | > 64 | > 256 | > 256 | > 256 | > 256 | > 256 | > 256 | > 256 | > 200 | > 200 |
| CC[C@H](C)[C@H](NC(=O)[C@H](CCCCN)NC(=O)[C@H](CCCCN)NC(=O)[C@H](CO)NC(=O)[C@@H](NC(=O)CNC(=O)[C@H](CC(C)C)NC(=O)[C@@H](NC(=O)[C@@H](N)CCCCN)[C@@H](C)CC)C(C)C)C(=O)N[C@@H](CCSC)C(=O)N[C@@H](CCCNC(=N)N)C(=O)N[C@@H](CCCNC(=N)N)C(=O)N[C@H](C(=O)N[C@@H](CO)C(=O)N[C@@H](CCCCN)C(=O)N[C@@H](CC(=O)O)C(=O)N[C@H](C(=O)N[C@@H](CC(C)C)C(=O)N[C@H](C(=O)NCC(=O)N[C@@H](CCCCN)C(=O)N[C@@H](CCCCN)C(N)=O)[C@@H](C)O)[C@@H](C)CC)[C@@H](C)CC (H-KILGVSKKIMRRISKDILTGKK-NH2) | inactive | < 5 | 32 (≈ 12.7 µM) | 32 (≈ 12.7 µM) | 16 (≈ 6.37 µM) | 16 (≈ 6.37 µM) | 2 (≈ 0.796 µM) | 2 (≈ 0.796 µM) | 16 (≈ 6.37 µM) | 64 (≈ 25.5 µM) | 32 (≈ 12.7 µM) | > 256 | > 256 | > 256 | 16 (≈ 6.37 µM) | 16 (≈ 6.37 µM) | 12.5 (≈ 4.98 µM) | 6.25 (≈ 2.49 µM) |
| CC[C@H](C)[C@H](NC(=O)[C@H](CCCNC(=N)N)NC(=O)[C@H](CCCCN)NC(=O)[C@H](CO)NC(=O)[C@@H](NC(=O)CNC(=O)[C@H](CC(C)C)NC(=O)[C@@H](NC(=O)[C@@H](N)CCCCN)[C@@H](C)CC)C(C)C)C(=O)N[C@@H](CC(C)C)C(=O)N[C@H](C(=O)NCC(=O)N[C@@H](CCCCN)C(=O)N[C@@H](CCCCN)C(N)=O)[C@@H](C)O (H-KILGVSKRILTGKK-NH2) | inactive | < 5 | > 256 | > 256 | > 256 | > 256 | > 256 | 256 (≈ 166 µM) | > 128 | > 256 | > 256 | > 256 | > 256 | > 12.8 | > 256 | 256 (≈ 166 µM) | > 100 | 50 (≈ 32.5 µM) |
| CC[C@H](C)[C@H](NC(=O)[C@H](CCCCN)NC(=O)[C@H](CCCCN)NC(=O)[C@H](CO)NC(=O)[C@@H](NC(=O)CNC(=O)[C@H](CCCNC(=N)N)NC(=O)[C@H](CC(C)C)NC(=O)[C@@H](NC(=O)[C@@H](N)CCCCN)[C@@H](C)CC)C(C)C)C(=O)N[C@@H](CCSC)C(=O)N[C@@H](CCCNC(=N)N)C(=O)N[C@@H](CCCNC(=N)N)C(=O)N[C@H](C(=O)N[C@@H](CC(C)C)C(=O)N[C@H](C(=O)NCC(=O)N[C@@H](CCCCN)C(=O)N[C@@H](CCCCN)C(N)=O)[C@@H](C)O)[C@@H](C)CC (H-KILRGVSKKIMRRILTGKK-NH2) | inactive | < 5 | 32 (≈ 14.4 µM) | 32 (≈ 14.4 µM) | 2 (≈ 0.899 µM) | 2 (≈ 0.899 µM) | 4 (≈ 1.8 µM) | 4 (≈ 1.8 µM) | 64 (≈ 28.8 µM) | 32 (≈ 14.4 µM) | 32 (≈ 14.4 µM) | > 256 | > 256 | 128 (≈ 57.5 µM) | 64 (≈ 28.8 µM) | 64 (≈ 28.8 µM) | 32 (≈ 14.4 µM) | 16 (≈ 7.19 µM) |
| CC[C@H](C)[C@H](NC(=O)[C@H](CCCCN)NC(=O)[C@H](CCCCN)NC(=O)[C@H](CO)NC(=O)[C@@H](NC(=O)CNC(=O)[C@H](CCCNC(=N)N)NC(=O)[C@H](CC(C)C)NC(=O)[C@@H](NC(=O)[C@@H](N)CCCCN)[C@@H](C)CC)C(C)C)C(=O)N[C@@H](CCSC)C(=O)N[C@@H](CCCNC(=N)N)C(=O)N[C@@H](CCCNC(=N)N)C(=O)N[C@H](C(=O)N[C@@H](CO)C(=O)N[C@@H](CCCCN)C(=O)N[C@@H](CC(=O)O)C(=O)N[C@H](C(=O)N[C@@H](CC(C)C)C(=O)N[C@H](C(=O)NCC(=O)N[C@@H](CCCCN)C(=O)N[C@@H](CCCCN)C(N)=O)[C@@H](C)O)[C@@H](C)CC)[C@@H](C)CC (H-KILRGVSKKIMRRISKDILTGKK-NH2) | inactive | < 5 | 64 (≈ 24 µM) | 16 (≈ 6 µM) | 8 (≈ 3 µM) | 8 (≈ 3 µM) | 1 (≈ 0.375 µM) | 1 (≈ 0.375 µM) | 4 (≈ 1.5 µM) | 16 (≈ 6 µM) | 16 (≈ 6 µM) | > 256 | > 256 | > 128 | 16 (≈ 6 µM) | 16 (≈ 6 µM) | 25 (≈ 9.37 µM) | 12.5 (≈ 4.68 µM) |
